In paper PMC9862800, “Pharmaceutical Systems as a Strategy to Enhance the Stability of Oxytetracycline Hydrochloride Polymorphs in Solution” (Pharmaceutics, 2023):
Structures can show the parent of a compound that is named as a salt.

How the values were obtained:
[1] = Apparent binding constant by UV-vis spectroscopy, Scott's plot, ligand β-CD; format: physicochemical; conditions: aqueous solution; absorption at 355 nm; Scott's equation, 1:1 stoichiometry; OxyCl 0.068 mM, ligand 0.068 to 10 mM
Procedure: (§1) UV-vis data were used to calculate the association or binding constants (Ka) of OxyCl polymorphs with each ligand in an aqueous solution by different treatment analyses. The concentration of OxyCl was kept constant (0.068 mM), while the concentration of ligands increased from 0.068 to 10 mM.
(§2) Ka values were determined by applying the formula of Benesi–Hildebrandt, adjusted by Scott utilized for a complex of 1:1 stoichiometry:(1) [L]/ΔAobs=[L]/ΔAc+1/Ka×ΔAc where [L] is the molar concentration of the ligand, ∆Aobs is the variation in the absorbance observed for the OxyCl solid form for a given [L], ΔAc is the variation in the absorbance between the complex and the free solid form.
(§3) The association constant (Ka) for the formation of binary systems was estimated from changes in the intensity of the absorption at 355 nm with increasing ligand concentration using double reciprocal plots of Scott´s equation. […] However, deviations in straight lines were detected for the binary systems with NAC, which determined it was impossible to calculate an association constant assuming this model. To determine the Ka for OxyCl:NAC systems, a model matrix that applied least-squares techniques for the linear transformation of the data was used.

[2] = Apparent binding constant by UV-vis spectroscopy, Scott's plot, ligand ASP; format: physicochemical; conditions: aqueous solution; absorption at 355 nm; Scott's equation, 1:1 stoichiometry; OxyCl 0.068 mM, ligand 0.068 to 10 mM
Procedure: as §1, §2, §3

[3] = Apparent binding constant by UV-vis spectroscopy, Scott's plot, ligand HIS; format: physicochemical; conditions: aqueous solution; absorption at 355 nm; Scott's equation, 1:1 stoichiometry; OxyCl 0.068 mM, ligand 0.068 to 10 mM
Procedure: as §1, §2, §3

[4] = Apparent binding constant by UV-vis spectroscopy, least-squares model matrix, ligand NAC; format: physicochemical; conditions: aqueous solution; absorption at 355 nm; model matrix with least-squares linear transformation; OxyCl 0.068 mM, ligand 0.068 to 10 mM
Procedure: as §1
Another model for measuring binding constants in data analysis utilizes least-squares analysis. The general approach is to use the linear regression method with a model matrix to find the binding association constant and then apply least-squares procedures to a linear transformation. The normal equations can be written in matrix form as:(2) M×P=Q where (3) M=[n∑x∑x∑x^2] (4) P=[a/b] (5) Q=[∑y/∑xy] then:(6) Ka=a/b
as §3

[5] = Chemical stability (degradation kinetics) in aqueous solution by HPLC; format: physicochemical; conditions: 25.0 ± 0.1 °C; for k0, intrinsic rate constant of degradation of the free polymorph: light protection, 30 µg/mL
Procedure: (§4) The kinetics of degradation of OxyCl polymorphs both in the presence and absence of ligands were investigated in the aqueous solutions and PBS.
(§5) Stock solutions of each solid form, as well as each ligand β-CD, ASP, and NAC, were prepared. These stock solutions were diluted to a final concentration of 30 µg/mL in water and PBS solutions to prepare the test solutions. The solutions containing ligands were prepared in the molar ratio of 1:1. These solutions were stored with light protection in order to diminish any photolytic effects in a water bath at a constant temperature of 25.0 ± 0.1 °C. Samples were withdrawn at appropriate time intervals and immediately analyzed by HPLC. The observed pseudo first-order rate constants (kobs) for the OxyCl polymorphs degradation were obtained from a linear regression analysis of the natural logarithm of the remaining solid forms plotted against time.
(§6) An HPLC-UV procedure under isocratic conditions was optimized. The results were expressed as the mean of the three determinations of samples prepared in duplicate. The HPLC system was an Agilent 1100 (Agilent Technologies, Waldbronn, Germany) equipped with a column Gemini C18 250 mm × 4.6 mm i.d. filled with 5 μm particles and a precolumn (guard cartridge SecurityGuard C18 4 mm × 3.0 mm i.d.) supplied by Phenomenex (Phenomenex Inc., Torrance, CA, USA). To avoid interference from degradation products, the UV detection was performed at a wavelength of 355 nm. The mobile phase was acetonitrile-water adjusted to a pH of 3 with phosphoric acid (20:80, v/v), and a flow rate of 1 mL/min was used. The column temperature was 25 °C and the injection volume was 50 µL.
It is important to mention that the results presented in these studies represent the first report about OxyCl polymorphs stability. The degradation curves of each OxyCl polymorph and its binary systems with β-CD, NAC, and ASP in an aqueous solution, under identical experimental conditions, were compared. […] The kinetic parameters, which are important in the pharmaceutical sector, were determined using a first-order reaction model that could be expressed by the following equation:ln Ct = […] − k t(8) where Ct and C0 were the concentrations of OxyCl at different reaction times and at the initial time, respectively, k was the degradation rate constant, and t was time. As a result, the slope of the fitted lines could be used to determine k.
(§7) Furthermore, linear regression analysis was used to estimate the intrinsic rate constant of degradation of the free OxyCl polymorphs (k0), the observed rate constant of OxyCl polymorphs in the presence of ligands (kobs), the half-life (t50), and the time of 10% degradation of the drug (t90).

[6] = Chemical stability (degradation kinetics) in PBS by HPLC; format: physicochemical; conditions: 25.0 ± 0.1 °C; for k0, intrinsic rate constant of degradation of the free polymorph: PBS (pH 7.4), light protection, 30 µg/mL
Procedure: as §4, §5, §6, §7
The degradation plots were linear, indicating apparent first-order kinetics. […] It was observed that OxyCl-I degraded at a faster rate than OxyCl-II and OxyCl-III, with a degradation rate of OxyCl-II < OxyCl-III < OxyCl-I.

[7] = set-up: method as in doi:10.1016/j.molliq.2017.12.006; conditions: incorporated into β-CD cavity; hydrolytic degradation; cited from earlier work

| SMILES | Apparent binding constants Ka, ligand β-CD [1] | Apparent binding constants Ka, ligand ASP [2] | Apparent binding constants Ka, ligand HIS [3] | Apparent binding constants Ka, ligand NAC [4] | t50, half-life [5] | t90, time of 10% degradation of the drug [5] | k0, intrinsic rate constant of degradation of the free polymorph [5] | k0, intrinsic rate constant of degradation of the free polymorph [6] | t90, time of 10% degradation of the drug ([6]; PBS) | half-life at 30 µg/mL ([6]; PBS, pH 7.4, PBS, read-out: t50, half-life (converted)) | t50, half-life ([6]; PBS) | half-life at 30 µg/mL ([5]; pH 4, aqueous solution, read-out: t50, half-life (converted)) | increase of half-life in aqueous solutions by β-CD [7] |
| --- | --- | --- | --- | --- | --- | --- | --- | --- | --- | --- | --- | --- | --- |
| CN(C)[C@@H]1C(O)=C(C(N)=O)C(=O)[C@@]2(O)C(O)=C3C(=O)c4c(O)cccc4[C@@](C)(O)[C@H]3[C@H](O)[C@@H]12 [OxyCl-I, Oxytetracycline hydrochloride] | 3761 M⁻¹ | 34,645 M^−1 | 224 M⁻¹ | 2042 M⁻¹ | 68 h | 10 h | 0.0102 h⁻¹ | 0.009 h⁻¹ | 12 h | 81 h |  |  |  |
| CN(C)[C@@H]1C(O)=C(C(N)=O)C(=O)[C@@]2(O)C(O)=C3C(=O)c4c(O)cccc4[C@@](C)(O)[C@H]3[C@H](O)[C@@H]12 [OxyCl-II, Oxytetracycline hydrochloride] | 15,425 M^−1 | 3063 M⁻¹ | 323 M⁻¹ | 4582 M⁻¹ | 57 h | 9 h | 0.0121 h⁻¹ | 0.005 h⁻¹ | 21 h |  | 139 h |  |  |
| CN(C)[C@@H]1C(O)=C(C(N)=O)C(=O)[C@@]2(O)C(O)=C3C(=O)c4c(O)cccc4[C@@](C)(O)[C@H]3[C@H](O)[C@@H]12 [OxyCl-III, Oxytetracycline hydrochloride] | 3607 M⁻¹ | 1771 M⁻¹ | 8247 M⁻¹ | 3897 M⁻¹ |  | 9 h | 0.0116 h⁻¹ | 0.007 h⁻¹ | 15 h |  | 102 h | 60 h |  |
| NS(=O)(=O)c1cc2c(cc1Cl)NCNS2(=O)=O [hydrochlorothiazide] |  |  |  |  |  |  |  |  |  |  |  |  | ~28 fold |
